The values below come from US7915420B2, “Aryl piperidine amides” (Janssen Pharmaceutica NV, priority 2003, dated 2011).

The structures appear in SMILES notation.

For the experiment, the target named is T1, human glycine transporter-2 (GlyT2) (Homo sapiens, UniProt Q9Y345).
T1 construct: The entire coding region of the human GlyT2 cDNA was cloned into the mammalian expression vector pCINeo; expressed in transfected cells; host or cells: Cos-7 cells (African green monkey kidney), stably transfected, vector pCINeo, G418 selection
T1 sequence (Q9Y345 1-797): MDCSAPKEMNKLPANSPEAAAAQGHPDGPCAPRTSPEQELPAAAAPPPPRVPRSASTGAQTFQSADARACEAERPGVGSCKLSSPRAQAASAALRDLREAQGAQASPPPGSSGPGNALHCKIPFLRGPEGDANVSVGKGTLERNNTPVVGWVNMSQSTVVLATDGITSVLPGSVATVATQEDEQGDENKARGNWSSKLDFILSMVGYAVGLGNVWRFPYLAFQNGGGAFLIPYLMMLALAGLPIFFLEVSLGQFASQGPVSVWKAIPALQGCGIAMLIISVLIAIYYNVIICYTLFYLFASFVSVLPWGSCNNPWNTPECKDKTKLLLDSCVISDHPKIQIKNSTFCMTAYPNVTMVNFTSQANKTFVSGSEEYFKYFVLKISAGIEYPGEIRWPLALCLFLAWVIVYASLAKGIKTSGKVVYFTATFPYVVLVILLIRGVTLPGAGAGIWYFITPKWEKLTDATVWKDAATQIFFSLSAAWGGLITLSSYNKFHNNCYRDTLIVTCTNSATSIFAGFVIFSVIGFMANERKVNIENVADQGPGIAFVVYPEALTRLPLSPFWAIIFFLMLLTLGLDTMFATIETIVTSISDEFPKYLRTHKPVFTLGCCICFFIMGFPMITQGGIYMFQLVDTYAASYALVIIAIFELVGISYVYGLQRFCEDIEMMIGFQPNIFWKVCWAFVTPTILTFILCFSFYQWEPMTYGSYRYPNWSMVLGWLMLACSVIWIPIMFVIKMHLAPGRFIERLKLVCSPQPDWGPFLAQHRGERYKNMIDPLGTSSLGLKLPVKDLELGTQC
Description: GlyT2 inhibitory activity: inhibition of [14C]-glycine uptake in COS-7 cells transfected with human GlyT2. It counts as cell-based. Particulars: Cos-7 cells stably transfected with human GlyT2; 20 μM 14C-glycine, 2 h at 37° C. How it is done: GlyT2 antagonist activity of representative compounds of the invention was determined in accordance with the assay described in the Examples and by measuring the ability of compounds to inhibit the uptake of [^14C]-glycine in COS-7 cells transfected with the human glycine transporter-2 (GlyT2). The GlyT2 antagonist activities of these representative compounds are set forth hereinafter in Table 1.
Cos-7 cells (African green monkey, kidney) from American Type Culture Collection were grown in DMEM supplemented with 10% fetal bovine serum. The entire coding region of the human GlyT2 cDNA was cloned into the mammalian expression vector pCINeo, and then stably transfected into Cos-7 cells. Transfection was performed essentially as described by T. W. Lovenberg et al. (Mol. Pharmacol. 1999, 55:1101-1107). Cells are grown to 70-80% confluence, removed from the plate with trypsin, and pelleted in a clinical centrifuge. The pellet is resuspended in 400 μL complete medium and transferred to an electroporation cuvette with a 0.4 cm gap between the electrodes (Bio-Rad, 165-2088). One microgram of supercoiled GlyT2 cDNA is added to the cells, and the suspension is mixed. The voltage for the electroporation is set at 0.25 kV, and the capacitance is set at 960 μF. After electroporation, the cuvette contents are diluted to 10 mL with complete medium, and 0.5 mL, 1.0 mL, 2.0 mL and remainder (−6.5 mL) portions are plated onto four 10-cm dishes. The cells are incubated 24 h before adding 600 μg/mL G418. Colonies that survive selection are isolated and tested for GlyT2 expression.
The day before the assay, the GlyT2 expressing cells were plated into 96-well scintillating microplates (Amersham, RPNQ 0160) at a density of approximately 20,000 cells per well. Cells were grown overnight at 37° C. in 5% CO2 and then washed once with 37° C. HEPES buffered saline (HBS: 150 mM NaCl, 20 mM HEPES, 1 mM CaCl2, 10 mM glucose, 5 mM KCl, 1 mM MgCl2; pH 7.4). Eighty microliters of 37° C. HBS was subsequently added to each well. Test solutions of GlyT2 inhibitors were prepared in HBS from DMSO stock solutions, and 5 μL of test solution was added to each test well. Total transport and non-specific background were determined by adding 5 μL HBS or 5 μL 2 M glycine, respectively, to the appropriate control wells. Plates were then left at room temperature for 5 min before the addition of 20 μL of 100 μM ^14C-glycine (NEN, NEC 048H) to each well for a final concentration of 20 μM. Plates were incubated for 2 h at 37° C. with 5% CO2. After 2 h the reaction mixtures were removed by aspiration, and the plates were washed once with ice-cold HBS. Plates were sealed with TopSeal (Packard, 6005185) and counted on a Packard TopCount® scintillation counter.

Take `CC(C)Oc1ccccc1NCCNCc1cccc(C(=O)N2CCCCC2)c1` [Example 1, (3-{[2-(2-Isopropoxy-phenylamino)-ethylamino]-methyl}-phenyl)-piperidin-1-yl-methanone]: half-maximal inhibition (IC50) was put at 0.4 µM.
On to `CC(C)Oc1ccccc1NCCCNCc1cccc(C(=O)N2CCCCC2)c1` [Example 2, (3-{[3-(2-Isopropoxy-phenylamino)-propylamino]-methyl}-phenyl)-piperidin-1-yl-methanone], for which the midpoint of inhibition, the IC50, lay at 4 µM.
As for `O=C(c1cccc(CNCCNc2ccccc2)c1)N1CCCCC1` [Example 3, {3-[(2-Phenylamino-ethylamino)-methyl]-phenyl}-piperidin-1-yl-methanone], the figure is above 10 µM; as for `O=C(c1cccc(CNCCNc2ccccc2O)c1)N1CCCCC1` [Example 4, (3-{[2-(2-Hydroxy-phenylamino)-ethylamino]-methyl}-phenyl)-piperidin-1-yl-methanone], 20 µM.
Compound `COc1ccccc1NCCNCc1cccc(C(=O)N2CCCCC2)c1` [Example 5, (3-{[2-(2-Methoxy-phenylamino)-ethylamino]-methyl}-phenyl)-piperidin-1-yl-methanone] gave an IC50 of 2.5 µM.
As for `CCC(CC)Oc1ccccc1NCCNCc1cccc(C(=O)N2CCCCC2)c1` [Example 6, [3-({2-[2-(1-Ethyl-propoxy)-phenylamino]-ethylamino}-methyl)-phenyl]-piperidin-1-yl-methanone], the figure is 3 µM.
With `O=C(c1cccc(CNCCNc2ccccc2OC2CCCC2)c1)N1CCCCC1` [Example 7, (3-{[2-(2-Cyclopentyloxy-phenylamino)-ethylamino]-methyl}-phenyl)-piperidin-1-yl-methanone], the midpoint of inhibition, the IC50, lay at 1.2 µM.
As for `O=C(c1cccc(CNCCNc2ccccc2Oc2ccccc2)c1)N1CCCCC1` [Example 8, (3-{[2-(2-Phenoxy-phenylamino)-ethylamino]-methyl}-phenyl)-piperidin-1-yl-methanone], the figure is 3 µM; as for `COc1cccc(NCCNCc2cccc(C(=O)N3CCCCC3)c2)c1` [Example 9, (3-{[2-(3-Methoxy-phenylamino)-ethylamino]-methyl}-phenyl)-piperidin-1-yl-methanone], 0.8 µM.
As for `CC(C)Oc1cccc(NCCNCc2cccc(C(=O)N3CCCCC3)c2)c1` [Example 10, (3-{[2-(3-Isopropoxy-phenylamino)-ethylamino]-methyl}-phenyl)-piperidin-1-yl-methanone], the figure is 1 µM.
In the case of `O=C(c1cccc(CNCCNc2ccccc2[N+](=O)[O-])c1)N1CCCCC1` [Example 11, (3-{[2-(2-Nitro-phenylamino)-ethylamino]-methyl}-phenyl)-piperidin-1-yl-methanone], the midpoint of inhibition, the IC50, lay at 5 µM.
As for `Nc1ccccc1NCCNCc1cccc(C(=O)N2CCCCC2)c1` [Example 12, (3-{[2-(2-Amino-phenylamino)-ethylamino]-methyl}-phenyl)-piperidin-1-yl-methanone], the figure is above 10 µM; as for `CC(C)Nc1ccccc1NCCNCc1cccc(C(=O)N2CCCCC2)c1` [Example 13, (3-{[2-(2-Isopropylamino-phenylamino)-ethylamino]-methyl}-phenyl)-piperidin-1-yl-methanone], 0.55 µM.
As for `CS(=O)(=O)Nc1ccccc1NCCNCc1cccc(C(=O)N2CCCCC2)c1` [Example 14, N-(2-{2-[3-(Piperidine-1-carbonyl)-benzylamino]-ethylamino}-phenyl)methanesulfonamide], the figure is 3.1 µM.
The compound `O=C(Nc1ccccc1)Nc1ccccc1NCCNCc1cccc(C(=O)N2CCCCC2)c1` [Example 15, 1-Phenyl-3-(2-{2-[3-(piperidine-1-carbonyl)-benzylamino]-ethylamino}-phenyl)-urea] came in with an IC50 above 10 µM.
In turn, `O=C(NCc1ccccc1)Nc1ccccc1NCCNCc1cccc(C(=O)N2CCCCC2)c1` [Example 16, 1-Benzyl-3-(2-{2-[3-(piperidine-1-carbonyl)-benzylamino]-ethylamino}-phenyl)-urea] returned an IC50 of 3.1 µM. This lies in the single-digit micromolar range.
As for `O=C(c1cccc(CNCCNc2ccccc2Br)c1)N1CCCCC1` [Example 17, (3-{[2-(2-Bromo-phenylamino)-ethylamino]-methyl}-phenyl)-piperidin-1-yl-methanone], the figure is 1 µM.
The compound `O=C(c1cccc(CNCCNc2cccc(Br)c2)c1)N1CCCCC1` [Example 18, (3-{[2-(3-Bromo-phenylamino)-ethylamino]-methyl}-phenyl)-piperidin-1-yl-methanone] had an IC50 of 3.1 µM. Compared with the last compound, the IC50 is about 3.1-fold higher.
`O=C(c1cccc(CNCCNc2ccccc2Cl)c1)N1CCCCC1` [Example 19, (3-{[2-(2-Chloro-phenylamino)-ethylamino]-methyl}-phenyl)-piperidin-1-yl-methanone] showed an IC50 of 1.2 µM. Compared with the last compound, the IC50 is about 2.6-fold lower.
As for `O=C(c1cccc(CNCCNc2cccc(Cl)c2)c1)N1CCCCC1` [Example 20, (3-{[2-(3-Chloro-phenylamino)-ethylamino]-methyl}-phenyl)-piperidin-1-yl-methanone], the figure is 3.1 µM.
As for `CC(C)c1ccccc1NCCNCc1cccc(C(=O)N2CCCCC2)c1` [Example 21, (3-{[2-(2-Isopropyl-phenylamino)-ethylamino]-methyl}-phenyl)-piperidin-1-yl-methanone], the figure is 2.5 µM.
As for `COc1ccccc1-c1ccccc1NCCNCc1cccc(C(=O)N2CCCCC2)c1` [Example 22, (3-{[2-(2′-Methoxy-biphenyl-2-ylamino)-ethylamino]-methyl}-phenyl)-piperidin-1-yl-methanone], the figure is above 10 µM.
Consider `O=C(c1cccc(CNCCNc2ccccc2-c2ccsc2)c1)N1CCCCC1` [Example 23, Piperidin-1-yl-(3-{[2-(2-thiophen-3-yl-phenylamino)-ethylamino]-methyl}-phenyl)-methanone], for which the IC50 came out at 0.955 µM. This counts as sub-micromolar.
As for `CC(C)Oc1ccccc1OCCNCc1cccc(C(=O)N2CCCCC2)c1` [Example 24, (3-{[2-(2-Isopropoxy-phenoxy)-ethylamino]-methyl}-phenyl)-piperidin-1-yl-methanone], the figure is 0.4 µM; as for `CC(C)Oc1ccccc1OCCCNCc1cccc(C(=O)N2CCCCC2)c1` [Example 25, (3-{[3-(2-Isopropoxy-phenoxy)-propylamino]-methyl}-phenyl)-piperidin-1-yl-methanone], 0.4 µM; as for `CC(C)Oc1cccc(OCCNCc2cccc(C(=O)N3CCCCC3)c2)c1` [Example 26, (3-{[2-(3-Isopropoxy-phenoxy)-ethylamino]-methyl}-phenyl)-piperidin-1-yl-methanone], 7.5 µM.
`CC(C)Oc1ccccc1NCCN(C)Cc1cccc(C(=O)N2CCCCC2)c1` [Example 27, [3-({[2-(2-Isopropoxy-phenylamino)-ethyl]-methyl-amino}-methyl)-phenyl]-piperidinyl-methanone] returned an IC50 of 11 µM.

As a reminder, the IC50 is the point on the concentration scale where inhibition reaches its midpoint.
